The values below come from US12584905B2, “Method for identifying molecular markers of children's skin” (LABORATOIRES EXPANSCIENCE, priority 2012, dated 2026).

Common to all, as to type: cell-based, human
One data set concerns IL-8 protein. Nature of the data set: IL-8 protein assay in culture supernatant (Elisa test) of treated reconstructed epidermises. The settings on record: reconstructed epidermis from 1-month-old donors, applied for 16 hours. How it is done: (§1) Reconstructed skin models were generated using these samples. Reconstructed epidermises were thus produced with the various donors selected using the technique by Poumay et al. (Arch Dermatol Res, 296(5): 203-211, 2004). After two days of submerged culture, the reconstructed epidermises were cultured at the air/liquid interface for 5 or 9 days. For the duration of the culture, the medium was replenished every 2 to 3 days.
(§2) Epidermises were reconstructed as specified in example 1 with keratinocytes from donors of 1 month of age. The products, a cleansing cream and a moisturising lotion both containing avocado perseose, were applied on these reconstructed epidermises for 16 hours. A control was produced by applying 0.4% SDS on control reconstructed epidermis samples.
(§3) IL-8 protein was assayed in the culture supernatant using an Elisa test. The cell viability was evaluated using the MTT test. Finally, a histological analysis was conducted on tissues included in paraffin by means of haematoxylin and eosin staining.

Data set [1] deals with reconstructed epidermises from donors of 1 month of age. Nature of the data set: Histological analysis (haematoxylin and eosin) of thickness of live cell layers of treated reconstructed epidermises. The settings on record: histology, reconstructed epidermis from 1-month-old donors, applied for 16 hours, control = 100%, SDS at 0.4%. How it is done:
as §1, §2, §3

For data set [2] the test system is unchanged. Nature of the data set: Cell viability (MTT test) of reconstructed epidermises after product application. To be noted: reconstructed epidermis from 1-month-old donors, applied for 16 hours. How it is done:
as §1, §2, §3
In general terms: Formazan colour is commonly taken as a measure of viable cells.

Consider `CCCCCCCCCCCCOS(=O)(=O)[O-].[Na+]` [SDS], for which the IL8 inflammatory molecule in the data set with IL-8 protein (Elisa in culture supernatant, control = 100%, SDS at 0.4%) was determined as 602%. Moreover, the “Effect on IL-8 expression (in words)” value in the data set with IL-8 protein is “significant increase”. Also, the “Thickness of live layers” value in data set [1] amounted to 58%. The Viability in data set [2] (MTT test, control = 100%, SDS at 0.4%) was found to be 2%. In data set [2], the “Effect on cell viability (in words)” value is listed as “very significantly reduced”.
